# ChEMBL document CHEMBL2434830, “Inhibitory constituents from the aerial parts of Polygala tenuifolia on LPS-induced NO production in BV2 microglia cells” (Bioorg Med Chem Lett, 2013)
# Tested on: BV-2
# Test: Cytotoxicity against mouse BV2 cells assessed as cell viability at 50 uM by MTT assay
# Assay type: cell-based
# Conditions: bv-2, 50 µM
row,Compound,Activity
1,COc1cc2oc3cc(O)c(O)cc3c(=O)c2c(O)c1OC,Toxic
2,O=c1c2ccc(O)cc2oc2cccc(O)c12,Toxic
3,COc1c(O)cc2oc3ccc(O)cc3c(=O)c2c1O,Toxic

# Tested on: BV-2
# Test: Antiinflammatory activity in mouse BV2 cells assessed as inhibition of LPS-induced NO production after 24 hrs by Griess assay
# Assay type: functional, cell-based
# Conditions: BV-2, 24 h
row,IC50 [µM],Compound
1,38.4,O=c1c2cc(O)ccc2oc2c(O[C@@H]3O[C@H](CO)[C@@H](O)[C@H](O)[C@H]3O)ccc(O)c12
2,7.4,COc1ccc(O)c2c(=O)c3cc(O)ccc3oc12
3,20.6,O=c1c2cc(O)ccc2oc2cc3c(c(O)c12)OCO3
4,38.5,O=c1c2cc(O)c(O)cc2oc2cc(O)c([C@@H]3O[C@H](CO)[C@@H](O)[C@H](O)[C@H]3O)c(O)c12 [MANGIFERIN]
5,> 100,COc1cc2c(=O)c3c(O)cc(O)cc3oc2cc1O [ALLOATHYRIOL]
6,7.1,COc1ccc2c(c1)c(CC(=O)O)c(C)n2C(=O)c1ccc(Cl)cc1 [INDOMETHACIN]
